Measurements from ChEMBL document CHEMBL5321204, “Hybrids of delavirdine and piperdin-4-yl-aminopyrimidines (DPAPYs) as potent HIV-1 NNRTIs: Design, synthesis and biological activities” (Eur J Med Chem, 2023).

Columns and labels:
[1] = Cytotoxicity against human MT4 cells assessed as reduction in cell viability incubated for 5 days by MTT spectrophotometric assay; assay type: toxicity, cell-based; details: time 5 day
[2] = system: Human immunodeficiency virus 1; test: Antiviral activity against HIV-1 F227L-V106A mutant infected in human MT4 cells assessed as protection against virus induced cytopathic effect and measured after 5 days by MTT spectrophotometric assay; assay type: functional, organism-based; details: Human immunodeficiency virus 1, MT4, 120 h
in vitro = details: human, MT4 cells
Description: Selectivity index, ratio of CC50 for cytotoxicity against human MT4 cells assessed as reduction in cell viability to EC50 for antiviral activity against HIV-1 IIIb infected in human MT4 cells assessed as reduction in virus induced cytopathic effect

[3] = system: Human immunodeficiency virus 1; test: Antiviral activity against HIV-1 Y181C mutant infected in human MT4 cells assessed as protection against virus induced cytopathic effect and measured after 5 days by MTT spectrophotometric assay; assay type: functional, organism-based; details: Human immunodeficiency virus 1, MT4, 120 h
[4] = system: Human immunodeficiency virus 1; test: microbe, parasite or virus in culture; details: Human immunodeficiency virus 1, IIIb, MT4, 120 h
Description: Antiviral activity against HIV-1 IIIb infected in human MT4 cells assessed as protection against virus induced cytopathic effect and measured after 5 days by MTT spectrophotometric assay

[5] = system: Human immunodeficiency virus 1; test: Antiviral activity against HIV-1 E138K mutant infected in human MT4 cells assessed as protection against virus induced cytopathic effect and measured after 5 days by MTT spectrophotometric assay; assay type: functional, organism-based; details: Human immunodeficiency virus 1, MT4, 120 h
[6] = system: Human immunodeficiency virus 1; test: Antiviral activity against HIV-1 RES056 mutant infected in human MT4 cells assessed as protection against virus induced cytopathic effect and measured after 5 days by MTT spectrophotometric assay; assay type: functional, organism-based; details: Human immunodeficiency virus 1, MT4, 120 h
[7] = target: Human immunodeficiency virus type 1 reverse transcriptase (Human immunodeficiency virus 1, UniProt Q72547); test: Inhibition of HIV-1 reverse transcriptase using [2,8-3H]dGTP as substrate by […] assay
[8] = system: Human immunodeficiency virus 1; test: Antiviral activity against HIV-1 Y188L mutant infected in human MT4 cells assessed as protection against virus induced cytopathic effect and measured after 5 days by MTT spectrophotometric assay; assay type: functional, organism-based; details: Human immunodeficiency virus 1, MT4, 120 h
[9] = system: Human immunodeficiency virus 1; test: Antiviral activity against HIV-1 L100I mutant infected in human MT4 cells assessed as protection against virus induced cytopathic effect and measured after 5 days by MTT spectrophotometric assay; assay type: functional, organism-based; details: Human immunodeficiency virus 1, MT4, 120 h
[10] = system: Human immunodeficiency virus 2; test: Antiviral activity against HIV-2 ROD infected in human MT4 cells assessed as protection against virus induced cytopathic effect and measured after 5 days by MTT spectrophotometric assay; assay type: functional, organism-based; details: Human immunodeficiency virus 2, ROD, MT4, 120 h
[11] = system: Human immunodeficiency virus 1; test: Antiviral activity against HIV-1 K103 N mutant infected in human MT4 cells assessed as protection against virus induced cytopathic effect and measured after 5 days by MTT spectrophotometric assay; assay type: functional, organism-based; details: Human immunodeficiency virus 1, MT4, 120 h

SMILES | CC50 at 120 h [1] [µM] | EC50 [2] [µM] | selectivity ratio (in vitro) | EC50 [3] [µM] | EC50 [4] [µM] | EC50 [5] [µM] | EC50 [6] [µM] | IC50 [7] [µM] | EC50 [8] [µM] | EC50 [9] [µM] | EC50 [10] [µM] | EC50 [11] [µM]
CS(=O)(=O)Nc1ccc2[nH]c(C(=O)N3CCC(Nc4nccc(Oc5cccc(C#N)c5)n4)CC3)cc2c1 | 29 | > 28 | 8 | > 29 | 3.7 | 8.7 | > 29 | 0.6 | > 29 | > 29 | > 29 | > 29
Cc1cccc(C)c1Oc1ccnc(NC2CCN(C(=O)c3cc4cc(NS(C)(=O)=O)ccc4[nH]3)CC2)n1 | 21 | 2.7 | 678 | 0.84 | 0.032 | 0.08 | > 21 | 12 | 0.67 | 3.3 | > 21 | 0.52
CS(=O)(=O)Nc1ccc2[nH]c(C(=O)N3CCC(Nc4nccc(Oc5ccc(Br)cc5F)n4)CC3)cc2c1 | 80 | > 80 | 84 | 29 | 0.94 | 3 | > 80 | 0.11 | > 80 | 32 | > 80 | 23
Cc1cc(C#N)cc(C)c1Oc1ccnc(NC2CCN(C(=O)c3cc4cc(NS(C)(=O)=O)ccc4[nH]3)CC2)n1 | 25 | 3.6 | 686 | 0.73 | 0.036 | 0.21 | > 25 | 0.13 | 3.8 | 1.8 | > 25 | 0.54
Cc1cc(C#N)cc(C)c1Oc1nc(Nc2ccc(C#N)cc2)nc(N)c1Br [ETRAVIRINE] | > 4.6 | 0.03 | > 1430 | – | – | 0.017 | 0.1 | – | 0.03 | 0.012 | – | 0.004
CS(=O)(=O)Nc1ccc2[nH]c(C(=O)N3CCC(Nc4nccc(Oc5cccc(Cl)c5)n4)CC3)cc2c1 | 14 | 8.8 | 20 | 9 | 0.7 | 5.5 | > 14 | 0.34 | 9.2 | 8.1 | > 14 | 8.2
O=C1Nc2ccc(Cl)cc2[C@@](C#CC2CC2)(C(F)(F)F)O1 [EFAVIRENZ] | > 6.3 | 0.41 | – | – | – | 0.007 | 0.57 | – | 0.32 | 0.067 | – | 0.14
CS(=O)(=O)Nc1ccc2[nH]c(C(=O)N3CCC(Nc4nccc(Oc5ccccc5Cl)n4)CC3)cc2c1 | 15 | 8.3 | 35 | 5.9 | 0.43 | 0.98 | > 15 | 1.6 | 7.8 | 7.6 | > 15 | 6.4
Cc1cn([C@H]2C[C@H](N=[N+]=[N-])[C@@H](CO)O2)c(=O)[nH]c1=O [ZIDOVUDINE] | > 7.1 | 0.026 | > 290 | 0.019 | 0.024 | – | 0.035 | – | 0.023 | 0.009 | 0.021 | 0.032
CS(=O)(=O)Nc1ccc2[nH]c(C(=O)N3CCC(Nc4nccc(Oc5cccc(C(F)(F)F)c5)n4)CC3)cc2c1 | 16 | > 16 | 16 | > 16 | 1 | 4.2 | > 16 | 1.8 | > 16 | > 16 | > 16 | > 16
CS(=O)(=O)Nc1ccc2[nH]c(C(=O)N3CCC(Nc4nccc(Oc5cccc(F)c5)n4)CC3)cc2c1 | 15 | > 15 | 3 | > 15 | 5.7 | 7.3 | > 15 | 4.2 | > 15 | > 15 | > 15 | > 15
Cc1cc(Oc2ccnc(NC3CCN(C(=O)c4cc5cc(NS(C)(=O)=O)ccc5[nH]4)CC3)n2)cc(C)c1Cl | 5.3 | > 5.3 | 4 | > 5.3 | 1.3 | > 5.3 | > 5.3 | 3 | > 5.3 | > 5.3 | > 5.3 | > 5.3
CS(=O)(=O)Nc1ccc2[nH]c(C(=O)N3CCC(Nc4nccc(Oc5ccc(C(F)(F)F)cc5)n4)CC3)cc2c1 | 18 | > 18 | 10 | > 18 | 1.8 | 5.7 | > 18 | 1.3 | > 18 | > 18 | > 18 | > 18
Cc1cccc(Oc2ccnc(NC3CCN(C(=O)c4cc5cc(NS(C)(=O)=O)ccc5[nH]4)CC3)n2)c1 | 27 | > 27 | 5 | > 27 | 5.5 | > 27 | > 27 | 1.2 | > 27 | > 27 | > 27 | > 27
Cc1ccnc2c1NC(=O)c1cccnc1N2C1CC1 [NEVIRAPINE] | > 15 | > 15 | – | – | 0.19 | 0.31 | > 15 | – | > 15 | 2.2 | – | 7.4
CS(=O)(=O)Nc1ccc2[nH]c(C(=O)N3CCC(Nc4nccc(Oc5ccc(Cl)cc5)n4)CC3)cc2c1 | 15 | > 15 | 20 | > 15 | 0.74 | 4.5 | > 15 | 1.1 | > 15 | 8.2 | > 15 | 8.4
CS(=O)(=O)Nc1ccc2[nH]c(C(=O)N3CCC(Nc4nccc(Oc5cccc(Br)c5)n4)CC3)cc2c1 | 14 | 8.1 | 21 | 8.1 | 0.67 | 3.5 | > 14 | 3.4 | > 14 | 7.2 | > 14 | 7.6
Nc1ccn([C@@H]2CS[C@H](CO)O2)c(=O)n1 [LAMIVUDINE] | > 87 | 8.2 | > 11 | 3.5 | 8.3 | 7.4 | 10 | – | 4.1 | 1.7 | – | 4.7
CS(=O)(=O)Nc1ccc2[nH]c(C(=O)N3CCC(Nc4nccc(Oc5ccc(Br)cc5)n4)CC3)cc2c1 | 9.1 | > 9.1 | 10 | > 9.1 | 0.87 | 6.7 | > 9.1 | 2.2 | > 9.1 | 7.1 | > 9.1 | 8.2
CS(=O)(=O)Nc1ccc2[nH]c(C(=O)N3CCC(Nc4nccc(Oc5ccc(C#N)cc5)n4)CC3)cc2c1 | 192 | > 192 | 62 | > 192 | 3.1 | 7.3 | > 192 | 1.1 | > 192 | > 192 | > 192 | > 192
Cc1cc(C)c(Oc2ccnc(NC3CCN(C(=O)c4cc5cc(NS(C)(=O)=O)ccc5[nH]4)CC3)n2)c(C)c1 | 19 | 3.06 | 2150 | 0.36 | 0.009 | 0.033 | > 19 | 0.11 | 0.75 | 1.1 | > 19 | 0.12
Cc1ccccc1Oc1ccnc(NC2CCN(C(=O)c3cc4cc(NS(C)(=O)=O)ccc4[nH]3)CC2)n1 | 13 | > 13 | 41 | 9 | 0.33 | 1 | > 13 | 8.6 | > 13 | > 13 | > 13 | 8.7
CS(=O)(=O)Nc1ccc2[nH]c(C(=O)N3CCC(Nc4nccc(Oc5ccccc5Br)n4)CC3)cc2c1 | 17 | 6.5 | 60 | 3.7 | 0.27 | 0.79 | > 17 | 1.4 | 7.1 | 6.8 | > 17 | 3.8
